Test results from patent publication US7732420B2, “Combinations of transfection lipids exhibiting increased transfection efficiencies” (Northwestern University, priority 2003, dated 2010).

How the values were obtained:
[1] = system: human umbilical artery endothelial cells (HUAECs); assay: Transfection of HUAEC with lipoplexes, β-galactosidase expression; assay type: cell-based; conditions: lipid used individually
Protocol: The cells were seeded in 96-well plates at 24 hours before transfection at densities to give about 80% confluence at the time of transfection. Chloroform solutions of EDLPC with EDOPC and EDLPC with EDMPC were mixed at the different ratios and then chloroform was removed under N2 stream and vacuum. The lipid mixtures were hydrated in HBSS at 1 mg/ml to form liposomes. Liposomes and plasmid DNA were diluted in OptiMEM to 80 μg/ml for lipid and to 20 μg/ml for DNA, and liposomes were pipetted into an equal volume of plasmid DNA solution at a 4:1 weight ratio and mixed gently. The resultant DNA (plasmid with β-galactosidase marker gene)—lipid complexes were incubated at room temperature for 15 min and then added to the cells that were either in medium lacking serum (black bars) or medium containing 5% serum (gray bars). The lipoplexes had 35% (lipoid) excess positive over negative (DNA) charge. Cells were assayed for β-galactosidase expression 24 hours after transfection. Data represent the mean±S.D. of a representative experiment performed in quadruplicate. ˜20,000 fluorescence units corresponded approximately to 0.1 milliunit of β-galactosidase.
Cells were treated with DNA-lipid complex for 2 h in the absence (“no serum”) or presence of serum (“serum”) and then washed with HBSS and supplemented with fresh culture medium. Data represent the mean±S.D. of a representative experiment performed in quadruplicate.
Cells were treated with DNA-lipid complex for 2 h in the absence (“no serum”) or presence of 5% normal serum (“normal serum”) or 5% delipidated serum (“delipidated serum”) and then washed with HBSS and supplemented with fresh regular culture medium. Data represent the mean±S.D. of a representative experiment performed in quadruplicate.
Conditions were identical with those described in FIG. 1 except that different lipoid mixtures were used. Ditetradecyldimethyammonium (di C 14 substituted quaternary ammonium) was mixed with dioctadecylammonium (di C 18 quaternary ammonium).

HUAECs = assay: Intracellular distribution of fluorescent lipid and oligonucleotide of lipoplexes; assay type: cell-based, human
Protocol: Lipoplexes were labeled with a fluoresce in derivative of a double-stranded dodecameric oligonucleotide. Cells were incubated with the resulting lipoplexes in the presence of serum for 2 h and imaged under a fluorescence microscope at 2 h later after being washed with HBSS.
In order to determine if this pattern of fusion is also observed within cells (e.g., the mixture is more prone to fuse with endosomal membranes facilitating escape of DNA from endosomal degradation and nuclei entrance) the intracellular distribution of fluorescent lipid and oligonucleotide in EDOPC and EDLPC/EDOPC (60/40) lipoplexes was investigated. […] Lipoplexes were labeled with a fluorescein derivative of a double-stranded dodecameric oligonucleotide. Cells were incubated with the resulting lipoplexes in the presence of serum for 2 h and imaged under a fluorescence microscope after being washed in HBSS. […] Similar images were obtained with fluorescent plasmid DNA, although the fluorescence of the nucleus was less intense.

In the case of CCCCCCCC/C=C\CCCCCCCC(=O)OC[C@@H](COP(=O)(OCC)OCC[N+](C)(C)C)OC(=O)CCCCCCC/C=C\CCCCCCCC (some centres unmarked) [EDOPC, 1,2-dioleoyl-sn-glycero-3-ethylphosphocholine], the “transfection activity of the individual lipid” value (from here on “transfection activity”) [1] is reported as “quite weak transfection reagents”, the “intracellular distribution of lipid” value (HUAECs; fluorescent lipid in lipoplexes) is reported as “remained in the cytoplasm for at least 20 hours” and the “intracellular distribution of oligonucleotide” value (HUAECs; fluorescent oligonucleotide in lipoplexes, in the presence of serum) is reported as “remained in the cytoplasm for at least 20 hours”.

In the case of CCCCCCCCCCCCCC(=O)OC[C@H](COP(=O)(OCC)OCC[N+](C)(C)C)OC(=O)CCCCCCCCCCCCC (some centres unmarked) [EDMPC, 1,2-dimyristol-sn-glycero-3-ethylphosphocholine], the “transfection activity” value [1] is reported as “quite weak transfection reagents”.

CCCCCCCCCCCC(=O)OC[C@H](COP(=O)(OCC)OCC[N+](C)(C)C)OC(=O)CCCCCCCCCCC (some centres unmarked) [EDLPC, 1,2-dilauroyl-sn-glycero-3-ethylphosphocholine] was tested, and the “transfection activity” value [1] was “quite weak transfection reagents”.
